This is an account of results in patent publication US11702635B2, “Hematopoietic stem cell expansion method” (PLASTICELL LIMITED, priority 2017, dated 2023).

One experiment concerns UCB CD133+ cells (HSPC). As to the kind of experiment: Ex vivo expansion of umbilical cord blood CD133+ cells, flow cytometry and cell counting. As to conditions: for fold expansion of total nucleated cells (TNC) compared to cells grown in basal media / fold expansion of HSC (Lin-, CD38-, CD34+, CD45RA-, CD133+, CD90+, CD49f+) higher than basal media containing cytokines: 5 day culture; for fold expansion of total nucleated cells (TNC) compared to cells grown in basal media: HDAC inhibitor with cytokines, with or without WR1065 (100 μM), vs basal media containing cytokines; for fold expansion of HSC compared to cells grown in basal media: expansion protocol as defined above, HDAC inhibitor with or without WR1065; for fold expansion of HSC (Lin-, CD38-, CD34+, CD45RA-, CD133+, CD90+, CD49f+) higher than basal media containing cytokines: scriptaid 1 μM, WR1065 100 μM, FIG. 3. The format is cell-based, human. An excerpt:
Human UCB units were collected with written informed pre-consent and ethical approval from Oxford and Berkshire National Research Ethical Committees and studies conducted with approval of the NHSBT research committee. UCB mononuclear cells (MNC) were isolated by density gradient centrifugation on lymphocyte separation medium 1077 (PAA Laboratories, Pasching, Austria; density<1.077 g/ml). CD133+ cells were isolated from the MNC with immunomagnetic beads (Miltenyi Biotec, Germany). After isolation, the cells were cryopreserved in 10% DMSO in FCS (fetal calf serum) and stored at −150° C. in aliquots of 1×10^5 cells/vial. Cells were analysed for the purity of the isolation with flow cytometry on a BD LSR II (BD Biosciences, CA) using CD34-APC, CD133-PE and the appropriate isotype controls (all Miltenyi Biotec). Bone marrow derived CD133+ cells were obtained commercially from Lonza and peripheral blood CD133+ cells were isolated using immunomagnetic beads as above from total peripheral blood mononuclear cells obtained commercially from Lonza Biologics.
Vials from 2 or 3 donors were thawed and pooled in StemSpan ACF media (Stem Cell Technologies) containing 100 ng/mL SCF, 100 ng/mL FLT3LG and 20 ng/mL TPO (all from Miltenyi Biotec). After counting, cells were plated in 96 well round bottom suspension plates at 20,000 cells/well in the above media. Cells were allowed to recover overnight in these conditions in a 37° C. humidified incubator with 5% CO2.
The next day cells were harvested from the plates counted, and seeded into 24 well Nanex plates (Compass Biomedical) or standard tissue culture treated plates at 2500 cells/well in 1 mL basal media (StemSpan ACF with 100 ng/mL SCF, 100 ng/mL FLT3LG and 20 ng/mL TPO) containing an HDAC inhibitor (for most experiments scriptaid was used at a concentration of 1 μM). An aliquot of cells was used for CFU analysis and another for flow cytometry analysis.
After 3 days in culture the media was either replaced or supplemented with fresh media with the cytokines (SCF, TPO and FLT3LG) and the HDAC inhibitors (scriptaid 1 μM). Sixteen to twenty hours prior to harvest WR1065 was added at a concentration of 100 μM. After total of 5 days in expansion, cells are harvested, counted and analysed by flow cytometry.
Cells were harvested, washed and stained in 3% FBS in PBS using a panel of pre-conjugated antibodies. Cells were incubated with antibodies on ice for 30 min, then washed twice in 3% FBS in PBS and resuspended in 250 uL of above buffer before being analysed using a BD Canto II flow cytometer. [Antibody panel was as follows: 5 Lin custom cocktail (CD235a, CD4, CD10, CD11b and CD19) APC-Vio770, CD38-PE-Vio770, CD34-PerCP-Vio700, CD133-PE, CD45RA-VioBlue, CD49f-FITC, CD90-APC (all from Miltenyi Biotec).]
Cell number was measured using flow cytometry with the aid of counting beads (CountBright beads Life Technologies).
For orientation: A flow cytometer gives signals particle by particle.

For experiment [1], the system named is bone marrow derived CD34+ cells. As to conditions: pre-treatment of cells in vitro; cited from earlier work.
The mark [2] stands for this setting: UCB cells from three separate donors and a pooled sample, FIG. 13.

Consider `Nc1cc(F)ccc1NC(=O)/C=C/c1cnn(C/C=C/c2ccccc2)c1` [RGFP966], for which, in the experiment on UCB CD133+ cells (HSPC), the “fold expansion of total nucleated cells (TNC) compared to cells grown in basal media” value (from here on “fold expansion of total nucleated cells”) is reported as “increase” and the “fold expansion of HSC compared to cells grown in basal media” value is reported as “similar”.
For `Cn1cc(CNCC2CCN(c3ncc(C(=O)NO)cn3)CC2)c2ccccc21` [quisinostat], in that order: “slightly lower” and “significantly increased”.
Taken in the same sequence, the figures for `CN1CCc2c(c3ccccc3n2Cc2ccc(C(=O)NO)cc2)C1` [Tubastatin A] were “similar” and “significantly increased”.
For sodium phenylbutyrate, in that order: “increase” and “increased”.
Consider `Cc1cc(C)cc(C(=O)NOCCCCCC(=O)NO)c1` [LMK235], for which, in the experiment with UCB CD133+ cells (HSPC), the “fold expansion of total nucleated cells” value is “slightly lower” and the “fold expansion of HSC compared to cells grown in basal media” value is on record as “significantly increased”.
As for `O=C(CCCCCN1C(=O)c2cccc3cccc(c23)C1=O)NO` [scriptaid], in the experiment with UCB CD133+ cells (HSPC), the “fold expansion of total nucleated cells” value is “slightly reduced” and the “fold expansion of HSC (Lin-, CD38-, CD34+, CD45RA-, CD133+, CD90+, CD49f+) higher than basal media containing cytokines” value is “approximately 10 fold”. The “fold expansion of HSC compared to cells cultured in basal media, different culture plates” value in the experiment with UCB CD133+ cells (HSPC) (Nanex scaffolds, TC treated Corning 24 well plates or suspension Greiner Bio 24 well plates, effect similar across all surfaces, FIG. 14) is reported as “significantly increased”. Further, in the experiment with UCB CD133+ cells (HSPC) (setting [2]), the “fold expansion of HSC higher compared to basal media, average” value was found to be 30 fold and the “fold expansion of HSC higher compared to basal media, range” value is on record as 10-55 fold. The “proportion of CD133+/CD34+ cells compared to cells grown on cytokines alone” value in the experiment on UCB CD133+ cells (HSPC) (after 5 days in culture) is “increase”.
`NCCCNCCS` [WR1065]: the “enhancement of formation of CFU-GEMM and BFU-E colonies” value in experiment [1] is listed as not above 38 fold. The “fold expansion of HSC (Lin-, CD38-, CD34+, CD45RA-, CD133+, CD90+, CD49f+) higher than basal media containing cytokines” value in the experiment on UCB CD133+ cells (HSPC) was “around 3 fold”.
